Laboratory results taken from ChEMBL document CHEMBL3244188, “Antagonists of slow reacting substance of anaphylaxis. Synthesis of a series of chromone-2-carboxylic acids” (J Med Chem, 1977).

Tested on: Ileum
Assay: Antagonism of slow reacting substance of anaphylaxis-induced contraction in guinea pig ileum treated 30 secs before SRS-A challenge
Type: functional, tissue-based
Details: Cavia porcellus

Row | IC50 | Compound
1 | 3.3 µg/mL | C=CCc1c(OCC(O)COc2ccc(C(C)=O)c(O)c2)ccc2c(=O)cc(C(=O)[O-])oc12.[Na+] (stereo not drawn)
2 | 0.08 µg/mL | CCCc1c(OCC(O)COc2ccc3c(=O)cc(C(=O)[O-])oc3c2)ccc(C(C)=O)c1O.[Na+] (stereo not drawn)
3 | 50 µg/mL | O=C([O-])c1cc(=O)c2cccc(OCCCOc3ccccc3)c2o1.[Na+]
4 | 45 µg/mL | CCCc1c(OCC(O)COc2ccc3c(=O)cc(C(=O)[O-])oc3c2CCC)ccc(C(C)=O)c1OC.[Na+] (stereo not drawn)
5 | 0.15 µg/mL | CCCc1cc(C(C)=O)ccc1OCC(O)COc1ccc2c(=O)cc(C(=O)[O-])oc2c1CCC.[Na+] (stereo not drawn)
6 | 7 µg/mL | O=C([O-])c1cc(=O)c2ccc(OCC(O)COc3ccccc3)cc2o1.[Na+] (stereo not drawn)
7 | 3.5 µg/mL | CC(=O)c1ccc(OCCCCCOc2ccc3c(=O)cc(C(=O)[O-])oc3c2)cc1.[Na+]
8 | 6.8 µg/mL | CC(=O)c1ccc(OCCCCCOc2ccc3c(=O)cc(C(=O)[O-])oc3c2)cc1O.[Na+]
9 | 1.6 µg/mL | CCCc1ccccc1OCC(O)COc1cc2oc(C(=O)[O-])cc(=O)c2cc1CCC.[Na+] (stereo not drawn)
10 | 3.9 µg/mL | C=CCc1c(OCCCCCOc2ccc(C(=O)CN)cc2)ccc2c(=O)cc(C(=O)[O-])oc12.[Na+]
11 | 0.05 µg/mL | C=CCc1c(OCC(O)COc2ccc3c(=O)cc(C(=O)[O-])oc3c2CC=C)ccc(C(C)=O)c1O.[Na+] (stereo not drawn)
12 | 0.1 µg/mL | C=CCc1c(OCC(O)COc2ccc3c(=O)cc(C(=O)[O-])oc3c2)ccc(C(C)=O)c1O.[Na+] (stereo not drawn)
13 | 0.044 µg/mL | CCCc1ccccc1OCC(O)COc1ccc2c(=O)cc(C(=O)[O-])oc2c1CCC.[Na+] (stereo not drawn)
14 | 1.5 µg/mL | COc1cccc(OCCCCCOc2ccc3c(=O)cc(C(=O)[O-])oc3c2)c1.[Na+]
15 | 2 µg/mL | CCCc1ccccc1OCC(O)COc1ccc2c(=O)cc(C(=O)[O-])oc2c1.[Na+] (stereo not drawn)
16 | 0.9 µg/mL | C=CCc1ccc(OCCCCCOc2ccc3c(=O)cc(C(=O)[O-])oc3c2)c(C(C)=O)c1O.[Na+]
17 | 0.3 µg/mL | CCCc1c(OCC(O)COc2cccc(O)c2C(C)=O)ccc2c(=O)cc(C(=O)[O-])oc12.[Na+] (stereo not drawn)
18 | 0.18 µg/mL | CCCc1ccccc1OCCCOc1ccc2c(=O)cc(C(=O)[O-])oc2c1CCC.[Na+]
19 | 0.001 µg/mL | CCCc1c(OCCCOc2ccc3c(=O)cc(C(=O)[O-])oc3c2CCC)ccc(C(C)=O)c1O.[Na+]
20 | 1 µg/mL | CCCc1c(OCc2ccccc2)cccc1OCC(O)COc1ccc2c(=O)cc(C(=O)[O-])oc2c1CCC.[Na+] (stereo not drawn)
21 | 2.4 µg/mL | C=CCc1c(OCCCCCOc2ccc(C(C)=O)cc2)ccc2c(=O)cc(C(=O)[O-])oc12.[Na+]
22 | 18 µg/mL | CCCc1ccccc1OCCCOc1cc2oc(C(=O)[O-])cc(=O)c2cc1CCC.[Na+]
23 | 1.23 µg/mL | C=CCc1c(OCCCCCOc2ccc3c(=O)cc(C(=O)[O-])oc3c2CC=C)ccc(C(C)=O)c1O.[Na+]
24 | 9 µg/mL | O=C([O-])c1cc(=O)c2cccc(OCCCCCOc3ccccc3)c2o1.[Na+]
25 | 28 µg/mL | CC(=O)c1ccc(OCC(O)COc2ccc3c(=O)cc(C(=O)[O-])oc3c2)cc1O.[Na+] (stereo not drawn)
26 | 0.005 µg/mL | CCCc1c(OCC(O)COc2ccc3c(=O)cc(C(=O)[O-])oc3c2CCC)ccc(C(C)=O)c1O.[Na+] (stereo not drawn) [FPL-55712 SODIUM SALT]
27 | 1.8 µg/mL | C=CCc1ccccc1OCC(O)COc1ccc2c(=O)cc(C(=O)[O-])oc2c1.[Na+] (stereo not drawn)
28 | 0.05 µg/mL | C=CCc1c(OCCCCCOc2cccc(O)c2C(C)=O)ccc2c(=O)cc(C(=O)[O-])oc12.[Na+]

The remaining lines, values behind:

Row | Compound | IC50
29 | O=C([O-])c1cc(=O)c2c(OCCCCCCCCCOc3ccccc3)cccc2o1.[Na+] | 6 µg/mL
30 | O=C([O-])c1cc(=O)c2cc(OCCCCCOc3ccccc3)ccc2o1.[Na+] | 3.3 µg/mL
31 | O=C([O-])c1cc(=O)c2ccc(OCCCCCOc3ccccc3)cc2o1.[Na+] | 0.4 µg/mL
32 | O=C([O-])c1cc(=O)c2c(OCCCCCOc3ccccc3)cccc2o1.[Na+] | 17.5 µg/mL
33 | O=C([O-])c1cc(=O)c2ccc(OCCOc3ccccc3)cc2o1.[Na+] | 15 µg/mL
34 | O=C([O-])c1cc(=O)c2cc(CCCc3ccccc3)ccc2o1.[Na+] | 3 µg/mL
35 | O=C([O-])c1cc(=O)c2cc(CCCCCc3ccccc3)ccc2o1.[Na+] | 4.5 µg/mL
36 | O=C([O-])c1cc(=O)c2ccc(OCCCOc3ccccc3)cc2o1.[Na+] | 1.4 µg/mL
37 | O=C([O-])c1cc(=O)c2ccc(OCCCCCCCOc3ccccc3)cc2o1.[Na+] | 1.8 µg/mL
38 | O=C([O-])c1cc(=O)c2c(OCCOc3ccccc3)cccc2o1.[Na+] | 100 µg/mL
39 | O=C([O-])c1cc(=O)c2cc(Cc3ccccc3)ccc2o1.[Na+] | 6.6 µg/mL
40 | O=C([O-])c1cc(=O)c2ccc(OCCCCCCCCCOc3ccccc3)cc2o1.[Na+] | 1.8 µg/mL
41 | O=C([O-])c1cc(=O)c2c(OCCCCCCCOc3ccccc3)cccc2o1.[Na+] | 0.8 µg/mL
42 | O=C([O-])c1cc(=O)c2ccc(SCCCCCOc3ccccc3)cc2o1.[Na+] | 0.3 µg/mL
43 | O=C([O-])c1cc(=O)c2ccc(OCCCCCc3ccccc3)cc2o1.[Na+] | 0.6 µg/mL
44 | O=C([O-])c1cc(=O)c2c(OCCCOc3ccccc3)cccc2o1.[Na+] | 35 µg/mL
45 | O=C([O-])c1cc(=O)c2ccc(OCCCCCOc3cccc(O)c3)cc2o1.[Na+] | 1.5 µg/mL
46 | O=C([O-])c1cc(=O)c2ccc(OCCCCCOc3cccc(OCc4ccccc4)c3)cc2o1.[Na+] | 1 µg/mL
47 | O=C([O-])c1cc(=O)c2ccc(OCCCCCSc3ccccc3)cc2o1.[Na+] | 0.4 µg/mL
48 | O=C([O-])c1cc(=O)c2cc(OCCCOc3ccccc3)ccc2o1.[Na+] | 3.3 µg/mL
